Consider two molecules from paper PMC12666569, “The Pseudomonas aeruginosa membrane histidine kinase BqsS/CarS directly senses environmental ferrous iron (Fe^2+)” (The Journal of Biological Chemistry, 2025).

Data set [1] concerns the target T1, intact PaBqsS (Pseudomonas aeruginosa, UniProt Q9I0I2).
T1 construct: gene carS
Particulars: 5.0 mM Mg2+, 37 °C, SEC buffer pH 7.5, Fos-Chol-14; no added Fe2+.

Data set [2] deals with the molecule itself. The data set can be described thus: SEC; cleaved, purified PaBqsS in detergent (Fos-Chol-14, also glyco-diosgenin (GDN)); HiLoad 16/600 Superose 6 pg; 50 mM Tris pH 7.5, 100 mM NaCl, 1 mM TCEP, 5% glycerol, 0.02% Fos-Chol-14. (SEC sorts molecules by how far they enter the pores of the column.)

With `Nc1ncnc2c1ncn2[C@@H]1O[C@H](COP(=O)(O)OP(=O)(O)OP(=O)(O)O)[C@@H](O)[C@H]1O` [ATP], in data set [1], the specific activity result is reported as “We then tested the ATPase activity of intact PaBqsS purified in Fos-Chol-14”.

B1: Pseudomonas aeruginosa membrane histidine kinase BqsS/CarS, intact (enzyme)
chain: MRSIQRRLSVGLFAVLLVVGLVLAQTGLWLFDQGLRRYFAGNLREEAENLLVAMVRGPNGMQLDEQRLNPAFQRPYSGRYFVIELEKDTWRSRSLWDSELEVPHKKGLVQGLVDGPEEQRLLVFRGHYKRMGQKLRIVVAQDYTPILESFARVQWMGLGAGALALLLVLLLQRLTVRRSLRPLEEVRLQIAQLQQGQRSQLDNQAPEELEPLVEQINHLLAHTEETLKRSRNALGNLGHALKTPLAVLVSLAEREEMARQPELQQVLREQLEQIQQRLGRELGKARLVGEALPGAHFDCAEELPSLCDTLRLIHGPHLQVSWSAPPGLRLPWDREDLLEMLGNLLDNACKWADSEVRLTVAQGEGMVRLKVDDDGPGILPDQRQAVLERGTRLDEQVSGHGLGLGIARDIAEACGGRLSLEDSPLGGLRVSVELPLQKSGRAARA
notes: also called PaBqsS; intact PaBqsS; source: E. coli BL21 (DE3), membranes solubilized in detergent (Fos-Chol-14), purified (IMAC, TEV cleavage, second IMAC, SEC)
As for B1, the stoichiometry N (in general, a count of units in the complex or per binding partner) in data set [2] worked out at 2.
